In the NIST ThermoML archive (doi:10.1016/j.fluid.2016.04.009):
Numbers after ± are expanded uncertainties.

Assays:
[1] = molar heat capacity at constant pressure; conditions: 298.15 K; 101.33 kPa; Liquid; Drop calorimetry
[2] = for viscosity / mass density: 101.33 kPa; for viscosity / mass density / surface tension liquid-gas: Liquid; for viscosity: Concentric cylinders viscometry; for mass density: Vibrating tube method; for surface tension liquid-gas: Pendant drop shape
[3] = refractive index (Na D-line) (dimensionless); conditions: 101.33 kPa, Liquid, Standard Abbe refractometry
[4] = Molar enthalpy of transition or fusion; conditions: Crystal; DSC

CC(C)C[N+]1(C)CCCC1.O=S(=O)([N-]S(=O)(=O)C(F)(F)F)C(F)(F)F
molar heat capacity at constant pressure [1]: 582.08 ± 14 J/K/mol
viscosity ([2]; 293.15 K): 83.61 ± 1.2 mPa·s
mass density ([2]; 293.15 K): 1404.5 ± 1.8 kg/m3
viscosity ([2]; 298.15 K): 66.29 ± 0.94 mPa·s
mass density ([2]; 298.15 K): 1400 ± 1.8 kg/m3
surface tension liquid-gas ([2]; 298.2 K): 33.54 ± 0.75 mN/m
viscosity ([2]; 303.15 K): 53.53 ± 0.71 mPa·s
mass density ([2]; 303.15 K): 1395.6 ± 1.8 kg/m3
viscosity ([2]; 308.15 K): 43.91 ± 0.58 mPa·s
mass density ([2]; 308.15 K): 1391.2 ± 1.7 kg/m3
surface tension liquid-gas ([2]; 308.2 K): 33.1 ± 0.75 mN/m
viscosity ([2]; 313.15 K): 36.52 ± 0.47 mPa·s
mass density ([2]; 313.15 K): 1386.8 ± 1.7 kg/m3
viscosity ([2]; 318.15 K): 30.75 ± 0.39 mPa·s
mass density ([2]; 318.15 K): 1382.4 ± 1.7 kg/m3
surface tension liquid-gas ([2]; 318.2 K): 32.65 ± 0.75 mN/m
viscosity ([2]; 323.15 K): 26.18 ± 0.32 mPa·s
mass density ([2]; 323.15 K): 1378 ± 1.7 kg/m3
viscosity ([2]; 328.15 K): 22.52 ± 0.28 mPa·s
mass density ([2]; 328.15 K): 1373.7 ± 1.7 kg/m3
surface tension liquid-gas ([2]; 328.2 K): 32.2 ± 0.74 mN/m
viscosity ([2]; 333.15 K): 19.57 ± 0.24 mPa·s
mass density ([2]; 333.15 K): 1369.4 ± 1.7 kg/m3
viscosity ([2]; 338.15 K): 17.09 ± 0.2 mPa·s
mass density ([2]; 338.15 K): 1365.2 ± 1.7 kg/m3
surface tension liquid-gas ([2]; 338.2 K): 31.75 ± 0.74 mN/m
viscosity ([2]; 343.15 K): 15.06 ± 0.18 mPa·s
mass density ([2]; 343.15 K): 1360.9 ± 1.7 kg/m3
surface tension liquid-gas ([2]; 343.2 K): 31.53 ± 0.74 mN/m
viscosity ([2]; 348.15 K): 13.36 ± 0.16 mPa·s
mass density ([2]; 348.15 K): 1356.7 ± 1.7 kg/m3
viscosity ([2]; 353.15 K): 11.95 ± 0.14 mPa·s
mass density ([2]; 353.15 K): 1352.5 ± 1.6 kg/m3
viscosity ([2]; 358.15 K): 10.7 ± 0.1 mPa·s
mass density ([2]; 358.15 K): 1348.3 ± 1.6 kg/m3
viscosity ([2]; 363.15 K): 9.65 ± 0.11 mPa·s
mass density ([2]; 363.15 K): 1344.1 ± 1.6 kg/m3
Normal melting temperature ([2]; Crystal, DTA): -0.2 ± 1.1 °C
refractive index ([3]; 288.15 K): 1.42708 ± 0.00051
refractive index ([3]; 293.15 K): 1.42563 ± 0.00051
refractive index ([3]; 298.15 K): 1.42418 ± 0.00051
refractive index ([3]; 303.15 K): 1.42273 ± 0.00051
refractive index ([3]; 308.15 K): 1.42127 ± 0.00051
refractive index ([3]; 313.15 K): 1.41982 ± 0.00051
refractive index ([3]; 318.15 K): 1.41837 ± 0.00051
Molar enthalpy of transition or fusion [4]: 3.13 ± 0.335 kcal/mol

CC(C)Cn1cc[n+](C)c1.O=S(=O)([N-]S(=O)(=O)C(F)(F)F)C(F)(F)F
molar heat capacity at constant pressure [1]: 565.31 ± 13 J/K/mol
viscosity ([2]; 293.15 K): 107.35 ± 1.9 mPa·s
mass density ([2]; 293.15 K): 1442.1 ± 1.9 kg/m3
viscosity ([2]; 298.15 K): 81.44 ± 1.3 mPa·s
mass density ([2]; 298.15 K): 1437.2 ± 1.9 kg/m3
surface tension liquid-gas ([2]; 298.2 K): 32.72 ± 0.75 mN/m
viscosity ([2]; 303.15 K): 63.36 ± 0.92 mPa·s
mass density ([2]; 303.15 K): 1432.4 ± 1.9 kg/m3
viscosity ([2]; 308.15 K): 50.3 ± 0.69 mPa·s
mass density ([2]; 308.15 K): 1427.7 ± 1.8 kg/m3
surface tension liquid-gas ([2]; 308.2 K): 32.26 ± 0.74 mN/m
viscosity ([2]; 313.15 K): 40.69 ± 0.55 mPa·s
mass density ([2]; 313.15 K): 1422.9 ± 1.8 kg/m3
viscosity ([2]; 318.15 K): 33.4 ± 0.44 mPa·s
mass density ([2]; 318.15 K): 1418.2 ± 1.8 kg/m3
surface tension liquid-gas ([2]; 318.2 K): 31.81 ± 0.74 mN/m
viscosity ([2]; 323.15 K): 27.81 ± 0.36 mPa·s
mass density ([2]; 323.15 K): 1413.5 ± 1.8 kg/m3
viscosity ([2]; 328.15 K): 23.46 ± 0.3 mPa·s
mass density ([2]; 328.15 K): 1408.8 ± 1.8 kg/m3
surface tension liquid-gas ([2]; 328.2 K): 31.35 ± 0.74 mN/m
viscosity ([2]; 333.15 K): 20.05 ± 0.25 mPa·s
mass density ([2]; 333.15 K): 1404.2 ± 1.8 kg/m3
viscosity ([2]; 338.15 K): 17.24 ± 0.21 mPa·s
mass density ([2]; 338.15 K): 1399.5 ± 1.8 kg/m3
surface tension liquid-gas ([2]; 338.2 K): 30.9 ± 0.73 mN/m
viscosity ([2]; 343.15 K): 14.99 ± 0.18 mPa·s
mass density ([2]; 343.15 K): 1394.9 ± 1.8 kg/m3
surface tension liquid-gas ([2]; 343.2 K): 30.67 ± 0.73 mN/m
viscosity ([2]; 348.15 K): 13.14 ± 0.16 mPa·s
mass density ([2]; 348.15 K): 1390.3 ± 1.7 kg/m3
viscosity ([2]; 353.15 K): 11.63 ± 0.14 mPa·s
mass density ([2]; 353.15 K): 1385.7 ± 1.7 kg/m3
viscosity ([2]; 358.15 K): 10.31 ± 0.12 mPa·s
mass density ([2]; 358.15 K): 1381.1 ± 1.7 kg/m3
viscosity ([2]; 363.15 K): 9.22 ± 0.11 mPa·s
mass density ([2]; 363.15 K): 1376.6 ± 1.7 kg/m3
refractive index ([3]; 288.15 K): 1.4301 ± 0.00051
refractive index ([3]; 293.15 K): 1.42854 ± 0.00051
refractive index ([3]; 298.15 K): 1.42699 ± 0.00051
refractive index ([3]; 303.15 K): 1.42543 ± 0.00051
refractive index ([3]; 308.15 K): 1.42387 ± 0.00051
refractive index ([3]; 313.15 K): 1.42232 ± 0.00051
refractive index ([3]; 318.15 K): 1.42076 ± 0.00051

CCCC[n+]1ccn(C)c1.O=S(=O)([N-]S(=O)(=O)C(F)(F)F)C(F)(F)F
molar heat capacity at constant pressure [1]: 565.73 ± 13 J/K/mol
refractive index ([3]; 288.15 K): 1.43015 ± 0.001
refractive index ([3]; 293.15 K): 1.4286 ± 0.001
refractive index ([3]; 298.15 K): 1.42705 ± 0.001
refractive index ([3]; 303.15 K): 1.4255 ± 0.001
refractive index ([3]; 308.15 K): 1.42396 ± 0.001
refractive index ([3]; 313.15 K): 1.42241 ± 0.001
refractive index ([3]; 318.15 K): 1.42086 ± 0.001

CCCC[N+]1(C)CCCCC1.O=S(=O)([N-]S(=O)(=O)C(F)(F)F)C(F)(F)F
molar heat capacity at constant pressure [1]: 607.52 ± 14 J/K/mol
viscosity ([2]; 293.15 K): 261.28 ± 6.6 mPa·s
mass density ([2]; 293.15 K): 1386.9 ± 0.7 kg/m3
viscosity ([2]; 298.15 K): 189.11 ± 4.3 mPa·s
mass density ([2]; 298.15 K): 1382.5 ± 0.7 kg/m3
surface tension liquid-gas ([2]; 298.2 K): 34.14 ± 0.7 mN/m
viscosity ([2]; 303.15 K): 141.44 ± 2.7 mPa·s
mass density ([2]; 303.15 K): 1378.1 ± 0.7 kg/m3
viscosity ([2]; 308.15 K): 108.27 ± 1.7 mPa·s
mass density ([2]; 308.15 K): 1373.8 ± 0.6 kg/m3
surface tension liquid-gas ([2]; 308.2 K): 33.65 ± 0.7 mN/m
viscosity ([2]; 313.15 K): 84.87 ± 1.1 mPa·s
mass density ([2]; 313.15 K): 1369.5 ± 0.6 kg/m3
viscosity ([2]; 318.15 K): 67.24 ± 0.75 mPa·s
mass density ([2]; 318.15 K): 1365.2 ± 0.6 kg/m3
surface tension liquid-gas ([2]; 318.2 K): 33.17 ± 0.69 mN/m
viscosity ([2]; 323.15 K): 54.34 ± 0.55 mPa·s
mass density ([2]; 323.15 K): 1361 ± 0.6 kg/m3
viscosity ([2]; 328.15 K): 44.55 ± 0.44 mPa·s
mass density ([2]; 328.15 K): 1356.7 ± 0.6 kg/m3
surface tension liquid-gas ([2]; 328.2 K): 32.68 ± 0.69 mN/m
viscosity ([2]; 333.15 K): 37.09 ± 0.35 mPa·s
mass density ([2]; 333.15 K): 1352.5 ± 0.6 kg/m3
viscosity ([2]; 338.15 K): 31.09 ± 0.29 mPa·s
mass density ([2]; 338.15 K): 1348.3 ± 0.6 kg/m3
surface tension liquid-gas ([2]; 338.2 K): 32.2 ± 0.69 mN/m
viscosity ([2]; 343.15 K): 26.41 ± 0.24 mPa·s
mass density ([2]; 343.15 K): 1344.1 ± 0.6 kg/m3
surface tension liquid-gas ([2]; 343.2 K): 31.96 ± 0.69 mN/m
viscosity ([2]; 348.15 K): 22.65 ± 0.2 mPa·s
mass density ([2]; 348.15 K): 1340 ± 0.6 kg/m3
viscosity ([2]; 353.15 K): 19.65 ± 0.17 mPa·s
mass density ([2]; 353.15 K): 1335.9 ± 0.6 kg/m3
viscosity ([2]; 358.15 K): 17.09 ± 0.14 mPa·s
mass density ([2]; 358.15 K): 1331.8 ± 0.6 kg/m3
viscosity ([2]; 363.15 K): 15.01 ± 0.13 mPa·s
mass density ([2]; 363.15 K): 1327.7 ± 0.6 kg/m3
refractive index ([3]; 288.15 K): 1.43251 ± 0.00037
refractive index ([3]; 293.15 K): 1.43105 ± 0.00037
refractive index ([3]; 298.15 K): 1.42959 ± 0.00037
refractive index ([3]; 303.15 K): 1.42813 ± 0.00037
refractive index ([3]; 308.15 K): 1.42667 ± 0.00037
refractive index ([3]; 313.15 K): 1.42521 ± 0.00037
refractive index ([3]; 318.15 K): 1.42375 ± 0.00037
